Structures are written as SMILES. Activity calls are given as the source filed them. No cut-off for these calls is given here. Bounds are passed on as bounds.

One may read the inhibition as how much of the control response was suppressed. As a reminder, the IC50 is the concentration needed to halve the response being measured. For orientation: EC50 means the concentration at which the effect is half-maximal.

In series [1] the test system is Isocitrate dehydrogenase [NADP] cytoplasmic (Homo sapiens), O75874 [R132H]. In words: Inhibition of recombinant human IDH1 R132H mutant extracted from Escherichia coli BL21 (DE3) cells using alpha-ketoglutarate as substrate at 0.2 uM incubated for 60 mins in presence of NADPH by absorbance based assay relative to control.
Series [2] relates to Isocitrate dehydrogenase [NADP] cytoplasmic (Homo sapiens), O75874 [R132C]. In words: Inhibition of recombinant human IDH1 R132C mutant extracted from Escherichia coli BL21 (DE3) cells using alpha-ketoglutarate as substrate at 2 uM incubated for 60 mins in presence of NADPH by absorbance based assay relative to control.
In series [3] the test system is L02. Description: Cytotoxicity against human L02 cells assessed as inhibition of cell growth at 50 uM. The note with it: l02, 50 µM. Format: toxicity, cell-based.
The test system of series [4] is Isocitrate dehydrogenase [NADP] cytoplasmic (Homo sapiens), O75874 [R132H]. Description: Inhibition of recombinant human IDH1 R132H mutant extracted from Escherichia coli BL21 (DE3) cells using alpha-ketoglutarate as substrate at 2 uM incubated for 60 mins in presence of NADPH by absorbance based assay relative to control.
Series [5] deals with HT-1080. In words: Antiproliferative activity against human HT-1080 cells harboring IDH1 R132C mutant assessed as reduction in cell viability at 10 uM incubated for 72 hrs by MTT assay. Format: functional, cell-based. Background: Tetrazolium assays rely on reduction of a dye to a coloured formazan, in cell work by metabolically active cells.
Series [6] has as its system Isocitrate dehydrogenase [NADP] cytoplasmic (Homo sapiens), O75874 [R132C]. In words: Inhibition of recombinant human IDH1 R132C mutant extracted from Escherichia coli BL21 (DE3) cells using alpha-ketoglutarate as substrate at 0.2 uM incubated for 60 mins in presence of NADPH by absorbance based assay relative to control.
In series [7] the test system is HT-1080. In words: Antiproliferative activity against human HT-1080 cells harboring IDH1 R132C mutant assessed as reduction in cell viability incubated for 72 hrs by MTT assay. It is filed as functional.
Series [8] deals with T1, Isocitrate dehydrogenase [NADP] cytoplasmic (Homo sapiens, UniProt O75874, R132H). In words: Inhibition of IDH1 R132H mutant (unknown origin).
For series [9], the target named is T2, Isocitrate dehydrogenase [NADP] cytoplasmic (Homo sapiens, UniProt O75874, R132C). In words: Inhibition of IDH1 R132C mutant (unknown origin).
The target in series [10] is T1, Isocitrate dehydrogenase [NADP] cytoplasmic. In words: Inhibition of IDH1 R132H mutant in human U-87 MG cells assessed as reduction in 2-HG level incubated for 48 hrs in presence of NAD+ by resazurin fluorescence dye based Sigma MAK320-1 assay kit analysis. It is filed as cell-based. On the technique in general: The colour change of resazurin is a common sign of viable cells or microbes.

The target in series [11] is T2, Isocitrate dehydrogenase [NADP] cytoplasmic. In words: Inhibition of IDH1 R132C mutant in human HT-1080 cells assessed as reduction in 2-HG level incubated for 48 hrs in presence of NAD+ by resazurin fluorescence dye based Sigma MAK320-1 assay kit analysis. It is filed as cell-based.
The target of series [12] is T1, Isocitrate dehydrogenase [NADP] cytoplasmic. In words: Inhibition of recombinant human IDH1 R132H mutant extracted from Escherichia coli BL21 (DE3) cells using alpha-ketoglutarate as substrate incubated for 60 mins in presence of NADPH by absorbance based assay.
Series [13] concerns U-87 MG. Description: Antiproliferative activity against human U-87 MG cells assessed as reduction in cell viability incubated for 72 hrs by MTT assay. It is filed as functional, U-87MG ATCC.
The test system of series [14] is U-87 MG. Description: Antiproliferative activity against human U-87 MG cells harboring IDH1 R132H mutant assessed as reduction in cell viability incubated for 72 hrs by MTT assay. Format: functional, U-87MG ATCC.
In series [15] the target is T2, Isocitrate dehydrogenase [NADP] cytoplasmic. Description: Inhibition of recombinant human IDH1 R132C mutant extracted from Escherichia coli BL21 (DE3) cells using alpha-ketoglutarate as substrate incubated for 60 mins in presence of NADPH by absorbance based assay.
Series [16] has as its target Isocitrate dehydrogenase [NADP] cytoplasmic (Homo sapiens, UniProt O75874). In words: Inhibition of recombinant human wildtype IDH1 extracted from Escherichia coli BL21 (DE3) cells using alpha-ketoglutarate as substrate incubated for 60 mins in presence of NADPH by absorbance based assay.

Isocitrate dehydrogenase [NADP] cytoplasmic (Homo sapiens), O75874 [R132C], sequence (O75874 whole entry R132C): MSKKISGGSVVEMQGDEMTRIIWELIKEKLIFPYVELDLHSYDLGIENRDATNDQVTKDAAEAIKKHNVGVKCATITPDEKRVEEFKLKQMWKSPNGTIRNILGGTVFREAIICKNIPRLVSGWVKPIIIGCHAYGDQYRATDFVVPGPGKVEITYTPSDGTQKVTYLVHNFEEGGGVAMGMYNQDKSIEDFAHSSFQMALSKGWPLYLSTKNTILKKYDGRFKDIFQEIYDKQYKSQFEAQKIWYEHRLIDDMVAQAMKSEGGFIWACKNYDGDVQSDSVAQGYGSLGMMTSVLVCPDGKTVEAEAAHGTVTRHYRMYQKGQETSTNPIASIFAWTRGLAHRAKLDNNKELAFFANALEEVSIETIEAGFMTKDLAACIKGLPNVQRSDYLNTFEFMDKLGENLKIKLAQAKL
Isocitrate dehydrogenase [NADP] cytoplasmic (Homo sapiens), O75874 [R132H], sequence (O75874 whole entry R132H): as the sequence (O75874 whole entry R132C) above, with C132H counted along it
T2 sequence (O75874 2-414 R132C limits assumed): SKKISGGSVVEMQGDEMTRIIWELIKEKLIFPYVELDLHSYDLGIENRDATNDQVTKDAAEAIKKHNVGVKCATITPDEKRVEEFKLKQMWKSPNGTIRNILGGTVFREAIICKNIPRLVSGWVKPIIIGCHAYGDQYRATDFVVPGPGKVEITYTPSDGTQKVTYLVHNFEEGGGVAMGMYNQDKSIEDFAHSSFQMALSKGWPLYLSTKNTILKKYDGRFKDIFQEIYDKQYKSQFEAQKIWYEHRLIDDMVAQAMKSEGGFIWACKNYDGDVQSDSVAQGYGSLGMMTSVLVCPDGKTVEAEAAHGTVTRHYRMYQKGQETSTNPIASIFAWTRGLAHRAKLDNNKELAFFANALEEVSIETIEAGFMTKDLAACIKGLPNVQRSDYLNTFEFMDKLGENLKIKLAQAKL
T1 sequence (O75874 2-414 R132H limits assumed): as the sequence (O75874 2-414 R132C limits assumed) above, with C131H counted along it
Isocitrate dehydrogenase [NADP] cytoplasmic (Homo sapiens, UniProt O75874), sequence (O75874 whole entry): as the sequence (O75874 whole entry R132C) above, with C132R counted along it

As to `COc1cc(O)c(-c2cc(-c3ccc(O)cc3)nc(-c3ccncc3)n2)cc1CC=C(C)C`, the inhibition amounted to 9.7% in series [1], 68.1% in series [2], 56.7% in [4] and 28.2% in series [6]. In addition, the Activity result in [3] is listed as “Toxic”. Besides, the outcome in series [5] was Active. In addition, the GC50 in [7] is 6 µM.

Take `COc1c(C)cc(NC(=O)c2nn(Cc3ccc(F)cc3)c3c2CN(C(=O)c2ccc[nH]2)C[C@]3(C)C(N)=O)cc1C`: the IC50 in [8] is 0.0152 µM; in series [9], 0.0088 µM.

As to `COc1ccc(-c2cc(-c3ccc(O)cc3)nc(-c3ncccn3)n2)c(O)c1`, the EC50 in series [10] came to 0.263 µM; in series [11], 0.279 µM. Also, the inhibition in series [1] was 73.1%; in series [2], 97.5%; in series [4], more than 100%; in series [6], 82%. Further, the IC50 was 0.0902 µM in [12], 0.0789 µM in series [15] and more than 20 µM in series [16]. Besides, the GC50 in series [13] was more than 20 µM; in series [14], 6.8 µM. In addition, in series [3], the Activity entry is “Toxic”.

As for `COc1cc(O)c(-c2cc(-c3ccc(O)cc3)nc(-c3ccccn3)n2)cc1CC=C(C)C`, the inhibition came out at 33.1% in [1], 76.8% in series [2], 74% in series [4] and 22.7% in series [6]. The GC50 in series [13] is more than 20 µM; in series [14], more than 20 µM; in [7], 0.85 µM. In addition, the Activity entry in series [3] is listed as “Toxic”. Moreover, the result in series [5] was Active.

These data come from ChEMBL document CHEMBL5608173, “Discovery of novel natural-product-derived mutant isocitrate dehydrogenases 1 inhibitors: Structure-based virtual screening, biological evaluation and structure-activity relationship study” (Eur J Med Chem, 2024).
